Results as given in publication PMC3871595, “Structure Based Identification and Characterization of Flavonoids That Disrupt Human Papillomavirus-16 E6 Function” (PLoS ONE, 2013).

How the values were obtained:
[1] = target: GBF-E6 binding to E6apc2 peptide (Human papillomavirus type 16, UniProt P03126); test: SPR competition, immobilized E6apc2 peptide, GBF-E6 analyte; design: species or system HPV-16; conditions: 1.6-12.5 µM
Procedure: The E6apc2 peptide was derived from the third zinc finger of the Sp1 protein and incorporates 10 amino acids from the charged helical domain of E6AP ([…]) at its C-terminus. […] In this experiment, E6apc2 was immobilized while E6apc1 control (E6-non-binder) was immobilized in a reference cell.
SPR analysis was performed on a Biacore 3000 instrument. Immobilized GBFE6 [43] was diluted to 30μg/mL in 10 mM sodium acetate, pH 4.0 and 5.0 and immobilized onto the dextran matrix of a CM5 sensor chip (Biacore) using the amine coupling method. All binding experiments were performed at 25 °C in 50 mM phosphate (pH 6.5) containing 200 mM NaCl. Pulses of 10 mM glycine (pH 3.0) were used to regenerate the surfaces between injections. […] SPR data were analyzed using BIAevaluation 4.1 software (Biacore).

[2] = test system: interaction between anti-FLAG antibody and the FLAG epitope in the E6AP-BAP fusion; test: FLAG/BAP specificity filter binding assay
Procedure: The collection of 72 available structural-lead compounds was tested in the filter-plate based in vitro E6-E6AP binding assay. Compounds were tested twice at concentrations of 10, 50, and 100 µM. […] Compounds that disrupted the Flag-BAP interaction with the same potency as the HPV-16 E6 and E6AP interaction were classified as non-specific and eliminated from further analysis.
Figure 3 Activity of flavonoids in the in vitro binding assay. Compounds were tested in vitro for the ability to disrupt the E6-E6AP interaction. […] Percent inhibition was determined by the amount of BAP activity remaining in the well after washing and normalized to DMSO. Data was plotted by linear regression for single site binding using Prism (n=3, S.E.M.).
(§1) This interaction between E6 and hDlg occurs at the C-terminus of E6 and is independent of the interaction between E6 and the charged leucine helix in E6AP [21, 22].

HaCat cells = test: cell viability (MTS, Celltiter 96 AQueous) HaCat; format: cell-based, human; conditions: HaCat (HPV negative), 48 to 96 hours, relative to DMSO
Procedure: (§2) HPV-18 positive HeLa cells and two additional control cell lines, C33a, a cell line derived from an HPV-negative human cervical cancer isolate, and HaCat, a spontaneously immortalized human keratinocyte cell line, were used to assess compounds for their impact on cell growth and viability. All cells were incubated for 48 to 96 hours with increasing doses of compound. Cell viability was measured by MTS based assay and % viability quantified relative to cells treated with DMSO.
(§3) For cell viability, 12,000 cells per cm^2 were plated in 96-well dishes 24 hours prior to drug addition. Fresh media and compound were added. Plates were read after 72-96 hours. Relative cell viability was assayed as directed in the Celltiter 96 AQueous one solution assay (Promega). For caspase activity, plates were assayed after 4, 8, 12, 24, or 48 hours as described for the Caspase-Glo 3/7 assay (Promega).

RPE-1 cells = test: cell viability (MTS, Celltiter 96 AQueous) RPE-1; format: cell-based, human; conditions: RPE-1 (HPV negative), 48 to 96 hours, relative to DMSO
C33a cells = test: cell viability (MTS, Celltiter 96 AQueous) C33a; format: cell-based, human; conditions: C33a (HPV negative), 48 to 96 hours, relative to DMSO
Procedure: as §2, §3

primary HFKs = test: cell viability (MTS, Celltiter 96 AQueous) primary HFKs; format: cell-based, human; conditions: 48 hours, relative to DMSO
[3] = target: T1, interaction between GST-E6 and three PDZ domains of hDlg fused to BAP (hDlg-BAP) (Human papillomavirus type 16, UniProt P03126); test: E6/hDlg-BAP specificity filter binding assay; design: species or system HPV-16
T1 construct: made in house; host or cells: E. coli BL21
T1 sequence (P03126 whole entry, the tested form may be a part): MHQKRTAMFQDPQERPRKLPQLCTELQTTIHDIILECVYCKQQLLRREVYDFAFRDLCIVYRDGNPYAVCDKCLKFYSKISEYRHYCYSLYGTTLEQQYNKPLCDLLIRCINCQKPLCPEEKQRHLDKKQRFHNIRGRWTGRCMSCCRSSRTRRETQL
Procedure: as §1
Pre-Block - 96-well filter plates were prepared (0.2 µm BioTrace NT, Pall). 100µL of blocking buffer (100 mM Tris pH 8.0, 100 mM NaCl, 0.1% milk) was added per well. Plates were blocked for 1 hr at RT on an orbital shaker. Buffer was removed by vacuum filtration using a vacuum manifold. GST-E6 Bead addition – GST-E6 beads were prepared at 5µg/mL in GST-E6 bead buffer (100 mM Tris pH 8.0, 100 mM NaCl, 0.1% milk, 2.5 mM DTT). 100µL of GST-E6 bead mix was added per well and incubated for 1 hr at 4°C. Buffer was removed by vacuum filtration. […] 48 µL of each reagent was added per well. For drug assay, 2µL of compound was added to each well and mixed thoroughly. […] Plates were incubated for 1-3 hours at RT on an orbital shaker. Buffer was removed by vacuum filtration. Plates were washed on the vacuum manifold, first with 200 µL buffer (100 mM Tris pH 8.0, 100 mM NaCl, 1 mM DTT), and twice more with 100µL lysis buffer without DTT. […] 60 µL of Immunostar-AP assay reagent was added, the BAP activity was allowed to develop for 10 minutes and the plates were read on a Wallace Luminometer. BAP activity was measured as relative light units (RLU) on a luminometer using the Immunostar-AP substrate (BioRad).

GBF-E6 binding to E6apc2 peptide, sequence (P03126 whole entry, the tested form may be a part): as above

O=c1cc(-c2ccc(O)c(O)c2)oc2cc(O)cc(O)c12 [luteolin, reference compound]
competition with E6apc2 peptide for binding to GBF-E6 [1]: directly competed with the peptide for binding to GBF-E6

COc1cccc(-c2cc(=O)c3cc(-c4nnn[nH]4)ccc3o2)c1 [CAF-24]
non-specific inhibition / specificity in FLAG-E6AP control assay [2]: increased specificity against the FLAG and hDlg control binding reactions | cell growth and viability (HaCat cells): little effect on the viability | cell growth and viability (RPE-1 cells): little effect on the viability | cell growth and viability (C33a cells): little effect on the viability | cell growth and viability (primary HFKs): to a lesser extent, inhibit growth of the primary HFKs | specificity against hDlg control binding reaction [3]: increased specificity against the FLAG and hDlg control binding reactions
